Each molecule was assayed on Vaccinia virus (assay: Antiviral activity against Vaccinia virus infected in primary rabbit kidney cells assessed as inhibition of virus-induced cytopathogenicity).
Assay type: functional, Orthopoxvirus vaccinia

Compound | ID50
N#Cc1cn([C@@H]2O[C@H](CO)[C@@H](O)[C@H]2O)c(=O)[nH]c1=O | >3.7 ×10⁻⁴ M
N#Cc1cn([C@H]2C[C@H](O)[C@@H](CO)O2)c(=O)[nH]c1=O | 1.6 ×10⁻⁵ M
O=c1[nH]c(=O)n([C@H]2C[C@H](O)[C@@H](CO)O2)cc1Br [BROXURIDINE] | 3.2 ×10⁻⁷ M
O=c1[nH]c(=O)n([C@H]2C[C@H](O)[C@@H](CO)O2)cc1Cl [CHLORODEOXYURIDINE] | 7.6 ×10⁻⁷ M
O=c1[nH]c(=O)n([C@H]2C[C@H](O)[C@@H](CO)O2)cc1F [FLOXURIDINE] | 4 ×10⁻⁷ M
O=c1[nH]c(=O)n([C@H]2C[C@H](O)[C@@H](CO)O2)cc1I [IDOXURIDINE] | 1.1 ×10⁻⁶ M
O=c1[nH]c(=O)n([C@H]2C[C@H](O)[C@@H](CO)O2)cc1C(F)(F)F [TRIFLURIDINE] | 3.3 ×10⁻⁷ M
Nc1ncnc2c1ncn2[C@@H]1O[C@H](CO)[C@@H](O)[C@@H]1O [VIDARABINE] | 1.4 ×10⁻⁶ M
